The text below walks through data of patent US7371766B2, “Curcumin analogs with anti-tumor and anti-angiogenic properties” (Emory University, priority 1999, dated 2008).

In series [1] the test system is Sixty human tumor cell lines. The following applies: for GI50: read-out: Median Growth Inhibitory Concentration (GI50), Mean, Mean over the NCI cell lines.
For the next series, the system named is NCI-H460. Briefly: cells. As to conditions: Homo sapiens, NCI-H460, 48 h; for GI50: read-out: Median Growth Inhibitory Concentration (GI50); for CC50: read-out: Median Lethal Concentration (LC50).
The next series has as its system HCC-2998. In words: cells. The following applies: Homo sapiens, HCC 2998, 48 h; for GI50: read-out: Median Growth Inhibitory Concentration (GI50); for CC50: read-out: Median Lethal Concentration (LC50).
The subject of the next series is RXF 393. In words: cells. The following applies: Homo sapiens, RXF 393, 48 h; for GI50: read-out: Median Growth Inhibitory Concentration (GI50); for CC50: read-out: Median Lethal Concentration (LC50).
A further series deals with HOP-62. In words: cells. The following applies: Homo sapiens, HOP-62, 48 h; for GI50: read-out: Median Growth Inhibitory Concentration (GI50).
For series [2], the system named is Sixty human tumor cell lines. In words: cells. The following applies: 48 h; for GI50: read-out: Median Growth Inhibitory Concentration (GI50), Mean; for CC50: read-out: Median Lethal Concentration (LC50), Mean.
The test system of the next series is HCT-116. In words: cells. The following applies: Homo sapiens, HCT-116, 48 h; for GI50: read-out: Median Growth Inhibitory Concentration (GI50); for CC50: read-out: Median Lethal Concentration (LC50).
The test system of the next series is UO-31. In words: cells. As to conditions: Homo sapiens, UO-31, 48 h; for GI50: read-out: Median Growth Inhibitory Concentration (GI50); for CC50: read-out: Median Lethal Concentration (LC50).
The next series deals with HCT-15. Briefly: cells. The following applies: Homo sapiens, HCT-15, 48 h; for GI50: read-out: Median Growth Inhibitory Concentration (GI50); for CC50: read-out: Median Lethal Concentration (LC50).
The subject of another series is MDA-N. Briefly: cells. The following applies: Homo sapiens, 48 h; for GI50: read-out: Median Growth Inhibitory Concentration (GI50); for CC50: read-out: Median Lethal Concentration (LC50).
The test system of the next series is A549. Briefly: cells. The following applies: Homo sapiens, A549, 48 h; for GI50: read-out: Median Growth Inhibitory Concentration (GI50); for CC50: read-out: Median Lethal Concentration (LC50).
Another series has as its system M14. Briefly: cells. The following applies: Homo sapiens, M14, 48 h; for GI50: read-out: Median Growth Inhibitory Concentration (GI50); for CC50: read-out: Median Lethal Concentration (LC50).
In a further series the test system is SK-MEL-5. In words: cells. As to conditions: Homo sapiens, SK-MEL-5, 48 h; for GI50: read-out: Median Growth Inhibitory Concentration (GI50).
A further series deals with TK-10. In words: cells. As to conditions: Homo sapiens, TK-10, 48 h; for GI50: read-out: Median Growth Inhibitory Concentration (GI50); for CC50: read-out: Median Lethal Concentration (LC50).
The next series relates to CCRF-CEM. Briefly: cells. As to conditions: Homo sapiens, 48 h; for GI50: read-out: Median Growth Inhibitory Concentration (GI50).
In another series the test system is OVCAR-4. In words: cells. As to conditions: Homo sapiens, OVCAR-4, 48 h; for GI50: read-out: Median Growth Inhibitory Concentration (GI50); for CC50: read-out: Median Lethal Concentration (LC50).
For the next series, the system named is OVCAR-8. In words: cells. As to conditions: Homo sapiens, OVCAR-8, 48 h; for GI50: read-out: Median Growth Inhibitory Concentration (GI50); for CC50: read-out: Median Lethal Concentration (LC50).
Another series concerns BT-549. In words: cells. The following applies: Homo sapiens, BT-549, 48 h; for GI50: read-out: Median Growth Inhibitory Concentration (GI50); for CC50: read-out: Median Lethal Concentration (LC50).
The subject of the next series is RPMI-8226. Briefly: cells. The following applies: Homo sapiens, RPMI-8226, 48 h; for GI50: read-out: Median Growth Inhibitory Concentration (GI50).
In a further series the test system is K-562. Briefly: cells. As to conditions: Homo sapiens, K562, 48 h; for GI50: read-out: Median Growth Inhibitory Concentration (GI50); for CC50: read-out: Median Lethal Concentration (LC50).
Another series has as its system DU-145. Briefly: cells. As to conditions: Homo sapiens, DU-145, 48 h; for GI50: read-out: Median Growth Inhibitory Concentration (GI50); for CC50: read-out: Median Lethal Concentration (LC50).
Another series deals with SK-OV-3. In words: cells. The following applies: Homo sapiens, SK-OV-3, 48 h; for GI50: read-out: Median Growth Inhibitory Concentration (GI50); for CC50: read-out: Median Lethal Concentration (LC50).
The next series has as its system MALME-3M. Briefly: cells. The following applies: Homo sapiens, 48 h; for GI50: read-out: Median Growth Inhibitory Concentration (GI50); for CC50: read-out: Median Lethal Concentration (LC50).
A further series relates to KM12. In words: cells. As to conditions: Homo sapiens, KM12, 48 h; for GI50: read-out: Median Growth Inhibitory Concentration (GI50); for CC50: read-out: Median Lethal Concentration (LC50).
The test system of the next series is MCF-7. Briefly: cells. As to conditions: Homo sapiens, MCF7, 48 h; for GI50: read-out: Median Growth Inhibitory Concentration (GI50); for CC50: read-out: Median Lethal Concentration (LC50).
For another series, the system named is SK-MEL-28. Briefly: cells. As to conditions: Homo sapiens, SK-MEL-28, 48 h; for GI50: read-out: Median Growth Inhibitory Concentration (GI50); for CC50: read-out: Median Lethal Concentration (LC50).
For a further series, the system named is OVCAR-5. Briefly: cells. The following applies: Homo sapiens, OVCAR-5, 48 h; for GI50: read-out: Median Growth Inhibitory Concentration (GI50); for CC50: read-out: Median Lethal Concentration (LC50).
In another series the test system is T-47D. Briefly: cells. The following applies: Homo sapiens, T47D, 48 h; for GI50: read-out: Median Growth Inhibitory Concentration (GI50); for CC50: read-out: Median Lethal Concentration (LC50).
Another series deals with SF-268. Briefly: cells. The following applies: Homo sapiens, SF-268, 48 h; for GI50: read-out: Median Growth Inhibitory Concentration (GI50); for CC50: read-out: Median Lethal Concentration (LC50).
Setting [3] is: read-out: Median Lethal Concentration (LC50).
Setting [4] is: NCI Anti-Tumor Screen, several cell types.

Like-named read-outs stand apart in the source and are kept apart here.

Take “3,5-Bis(2-hydroxybenzylidene)-sulfone [EF11]”: the GI50 in series [1] (48 hours) was 34.7 µM.
With `N.N.[Cl][Pt][Cl]` [Cisplatin, reference compound], in series [1] (48 hours), the GI50 came to 0.7 µM.
For the compound `COc1cc(/C=C/C(=O)CC(=O)/C=C/c2ccc(O)c(OC)c2)ccc1O` [Curcumin], the GI50 worked out at 7.9 µM with NCI-H460; 3.2 µM with HCC-2998; 3.2 µM in the series with RXF 393; 4 µM in the series with HOP-62; 6.7 µM in [2]; 3.2 µM in the series with HCT-116. In addition, the GI50 in the series on UO-31 stood at 12.6 µM; in the series with HCT-15 it was 4 µM; with MDA-N, 2.5 µM; with A549 it was 12.6 µM; in the series with M14, 4 µM; in the series on SK-MEL-5 it was 7.9 µM. The GI50 in the series on TK-10 was found to be 15.8 µM; with CCRF-CEM it was 3.2 µM; with OVCAR-4, 10 µM; in the series with OVCAR-8, 7.9 µM; with BT-549, 5 µM; with RPMI-8226 it was 2 µM. Moreover, the GI50 with K-562 was found to be 3.2 µM; in the series on DU-145 it was 15.8 µM; in the series on SK-OV-3, 7.9 µM; in the series with MALME-3M, 12.6 µM; in the series with KM12, 5 µM; in the series with MCF-7, 3.2 µM. Besides, the GI50 with SK-MEL-28 came to 5 µM; with OVCAR-5, 15.8 µM; with T-47D it was 7.9 µM; in the series on SF-268 it was 6.3 µM. In addition, the CC50 in the series with NCI-H460 turned out to be 63.1 µM; in the series on HCC-2998, 31.6 µM; in the series on RXF 393, 50.1 µM; in series [2], 66 µM; in the series on HCT-116, 50.1 µM; in the series on UO-31 it was 50.1 µM. Besides, the CC50 in the series on HCT-15 is 79.4 µM; in the series with MDA-N, 31.6 µM; in the series on A549, 79.4 µM; in the series with M14, 50.1 µM; in the series on TK-10, 63.1 µM; in the series with OVCAR-4, under 100 µM. In addition, the CC50 in the series with OVCAR-8 is 79.4 µM; in the series with BT-549, 39.8 µM; with K-562, under 100 µM; in the series on DU-145, 63.1 µM; in the series on SK-OV-3, 50.1 µM; in the series on MALME-3M, 50.1 µM. Moreover, the CC50 in the series with KM12 is 63.1 µM; in the series with MCF-7 it was under 100 µM; in the series on SK-MEL-28, 50.1 µM; in the series with OVCAR-5 it was 79.4 µM; in the series on T-47D it was under 100 µM; in the series with SF-268, under 100 µM.
On to `CC1(/C=C/c2ccccc2O)C=Cc2ccccc2O1` (stereo not shown) [EF7], for which the GI50 was found to be 17.6 µM in the series on NCI-H460; 18.4 µM with HCC-2998; 11 µM in the series with RXF 393; 16.3 µM with HOP-62; 15.8 µM in series [2]; 17.6 µM in the series with HCT-116. Besides, the GI50 with UO-31 was 13.5 µM; in the series on HCT-15, 17.2 µM; in the series with MDA-N, 16.1 µM; in the series with A549, 14.9 µM; in the series on M14 it was 15.7 µM; with SK-MEL-5, 15.5 µM. Besides, the GI50 amounted to 17.4 µM in the series with TK-10; 12.5 µM with CCRF-CEM; 14.1 µM with OVCAR-4; 17 µM in the series with OVCAR-8; 17.1 µM in the series on BT-549; 14.8 µM in the series with RPMI-8226. The GI50 is 14.9 µM with K-562; 16.4 µM in the series with DU-145; 16.6 µM in the series with SK-OV-3; 17.5 µM with MALME-3M; 17.1 µM with KM12; 18 µM in the series on MCF-7. Moreover, the GI50 with SK-MEL-28 was found to be 17.4 µM; in the series with OVCAR-5, 16.7 µM; in the series on T-47D, 7.7 µM; in the series with SF-268, 19.8 µM. Besides, the CC50 with NCI-H460 is 66.8 µM; in the series with HCC-2998 it was 56.8 µM; in the series with RXF 393, 49.2 µM; in the series with HOP-62 (setting [3]) it was 63.1 µM; in [2] it was 61.7 µM; in the series with HCT-116, 57.6 µM. The CC50 came to 51.3 µM in the series on UO-31; 68.9 µM with HCT-15; 56.9 µM in the series with MDA-N; 53.3 µM in the series with A549; 54 µM in the series with M14; 53.7 µM in the series on SK-MEL-5 (setting [3]). Also, the CC50 in the series with TK-10 was 55.9 µM; with CCRF-CEM (setting [3]), 79.5 µM; in the series with OVCAR-4, 53.1 µM; in the series with OVCAR-8 it was 86.4 µM; with BT-549, 56.8 µM; in the series on RPMI-8226 (setting [3]), 92.7 µM. For the same compound, the CC50 in the series on K-562 was 70.7 µM; with DU-145, 54.8 µM; in the series with SK-OV-3, 56.2 µM; in the series on MALME-3M, 68.8 µM; in the series with KM12, 55.5 µM; in the series on MCF-7 it was 65.9 µM. The CC50 in the series on SK-MEL-28 was 62.9 µM; with OVCAR-5, 58.4 µM; with T-47D it was 55.4 µM; in the series on SF-268, over 100 µM.
Regarding `C(=C\c1ccccc1)/S/C=C/c1ccccc1` [EF15], the GI50 in series [1] (48 hours) came out at 75.9 µM.
Consider `O=C1C(=Cc2ccccc2O)COCC1=Cc1ccccc1O` [EF25, 3,5-Bis(2-hyrdoxybenzylidene)tetrahydro4-H-pyran4-one], for which, in series [1] (setting [4]), the “GI50 compared with CISPLATIN, in words” value was “lower GI50 than the chemotherapeutic agent CISPLATIN for several cell types” and the “LC50 compared with CISPLATIN, in words” value is listed as “lower LC50 than the chemotherapeutic agent CISPLATIN for several cell types”. The GI50 in series [1] (48 hours) was 1.1 µM. For the same compound, the CC50 in [1] (read-out: Median Lethal Concentration (LC50), Mean, Mean over the cell line panel, 48 hours, SRB assay) stood at 24.2 µM.
